Results as given in patent publication US10869931B2, “Polyethylene glycol-modified angiogenesis inhibitor HM-1 and application thereof” (NANJING ANJI BIOLOGICAL TECHNOLOGY CO.,LTD, priority 2016, dated 2020).
Marks after values point to notes of the source that are not given here. Where no end group is shown, it is not given here.

How the values were obtained:
[1] = in vivo
[2] = tested on: human retinal vascular endothelial cells (HRCEC); assay: MTT proliferation of human retinal vascular endothelial cells; format: cell-based; conditions: 48 h; for Inhibition rate: HRCEC proliferation; for A570 nm-A630 nm: HRCEC, MTT
Summary of the method: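 HRCEC seeded at 3.0×10^4 cells/mL, adhered overnight, then exposed to polypeptide dilutions for 48 h at 37° C, 5% CO2; medium-only blank control. MTT added for 4 h, formazan dissolved in DMSO. PI (%)=1−administration group/negative group; three independent repeats, mean±SD, t test.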

[3] = tested on: neovascularization in rat model of premature retinopathy; assay: Fluctuating-oxygen rat model of premature retinopathy (endothelial nuclei count); format: in vivo; conditions: 100 μg intravitreal for 1 week from day 7; vascular endothelial nuclei per slice, day 14
Summary of the method: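 Newborn rats were cycled between 80% and 10% oxygen every 24 h, then moved to room air for 7 days. Conjugates were given by intravitreal injection from modeling day 7 for 1 week, with saline for model and normal controls. Endothelial nuclei breaching the inner limiting membrane were counted on H&E-stained 4 μm sections and averaged per section per eyeball.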

[4] = tested on: adjuvant arthritis (AA) SD rats; assay: Adjuvant arthritis (AA) rat model; format: in vivo; conditions: 40 mg/kg subcutaneous once every three days, AA SD rats
Hemangioma tumor cells = assay: MTT proliferation inhibition, hemangioma cells; format: cell-based, human; set-up: concentration or dose not given beside the values; conditions: 48 h
Summary of the method: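 Tumour cells plated at 2×10^4 cells/mL, attached overnight, then exposed to dilutions of mPEG-HM-1 for 48 h at 37 °C, 5% CO2. MTT added 4 h, formazan dissolved in DMSO, absorbance 570/630 nm; growth inhibition = 1 − treated/untreated, three independent repeats, mean±SD.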

mPEG2-NHS20k-Arg-Gly-Ala-Asp-Arg-Ala-Gly-Gly-Gly-Gly-Arg-Gly-Asp ({mPEG2‑NHS 20 kDa}-RGADRAGGGGRGD) [mPEG2-NHS20k-HM-1]
AUC0-∞ [1]: 4682.53 ± 15.01 mg/L/h
CL [1]: 0.0131 ± 0.0102 L/h/kg
MRT0-∞ [1]: 18.16 ± 10.22 h
T1/2β (half-life) [1]: 22.38 ± 0.34 h
Inhibition rate ([2]; 60 μg/mL): 44.01%*
A570 nm-A630 nm ([2]; 60 μg/mL): 0.7401 ± 0.07482
Inhibition rate ([2]; 80 μg/mL): 54.18%**
A570 nm-A630 nm ([2]; 80 μg/mL): 0.6056 ± 0.07003
Inhibition rate ([2]; 100 μg/mL): 64.62%*
A570 nm-A630 nm ([2]; 100 μg/mL): 0.4677 ± 0.07601
Cell nuclei count [3]: 7.683 ± 2.914
Joint swelling [4]: 0.80 ± 0.21 mm
Left and right paw swelling [4]: 3.77 ± 0.66 mm
Clinical score ([4]; maximum score 16): 5.82 ± 1.03
rate of growth inhibition (Hemangioma tumor cells): 55.38 ± 16.23%
